# Measured values as given in article PMC6424980, “Distinct G protein-coupled receptor phosphorylation motifs modulate arrestin affinity and activation and global conformation” (Nature Communications, 2019).
# Test system: arrestin-1
# Test: [15N,1H]TROSY NMR titration of arrestin-1 with peptide
# Assay type: binding, bovine
# Conditions: peptide:arrestin-1 up to 10:1
# Procedure: ^2H,^15N,^13C-labeled arrestin-1 aliquots were thawed quickly under running water, transferred to 30 kDa-cutoff Vivaspin (0.5 ml, Sartorius) centrifugal spin concentrators, and concentrated to approximately 600 μM. The concentrator was immediately transferred into a beaker filled with 400 ml of NMR buffer 1 or 2 (see below) carried by a floatation device. The dialysis was performed at 4 °C overnight. On the next day the concentration was determined by UV absorbance at 280 nm (molar extinction coefficient 26,360/mol/cm). […] The dialysis was performed at 4 °C overnight, and the peptide concentration was determined by its absorbance at 205 nm (molar extinction coefficient: 54,310/mol/cm). […]
# NMR measurements were performed on Bruker Avance III-HD 600 or 900 MHz spectrometer using a CTCI cryo-cooled probehead. […] Pulse lengths were calibrated for ^1H manually and for ^13C/^15N using an in-house automated procedure. pH was monitored using the position of the phosphate signal in NMR buffer 2 as an internal reference and varied by no more than 0.03 pH units during peptide titration experiments. [^15N,^1H]TROSY experiments were recorded with internal ETH pulse sequences, whereas 3D triple resonance TROSY experiments were recorded using the manufacturer’s pulse sequences. […]
sequence,measurement,value
"CDDEASTTVSKTETSQVAPA [5P, multiply phosphorylated rhodopsin C-terminus peptide lacking key site pS343]",NMR chemical shift / peak changes in arrestin-1 (in words),minimal chemical shift changes
